For data set [1], the system named is HCV replicon (Clone A cells, Huh7, subgenomic hepatits C virus RNA). Briefly: HCV Neo screening assay (HCV replicon, NPTII ELISA). The format is cell-based, hepatitis C virus. Particulars: for EC50 / inhibition at 25 µM: Hepatitis C virus, Huh-7; for EC50: Secondary Data, HCV; for inhibition at 25 µM: primary screening, 25 μM final concentration, 24 hours, percent inhibition of viral replication, read-out: HCV Inh; for HCV TI: therapeutic index CC50/EC50, HCV. For orientation: Replicon systems follow genome replication, usually without infectious particles.

The subject of data set [2] is RSV minigenome. The experiment in a line: RSV minigenome-dependent β-galactosidase expression assay (RSV β-Gal). The class given is cell-based, respiratory syncytial virus. Particulars: for EC50 / inhibition at 25 µM: human respiratory syncytial virus; for EC50: Secondary Data, RSV, read-out: RSV EC50; for inhibition at 25 µM: primary screening, 25 μM final concentration, 24 hours, percent inhibition of viral replication, read-out: RSV Inh; for RSV TI: therapeutic index CC50/EC50, RSV.

The test system of data set [3] is WNV (WN-hRuPac cells). Briefly: WNV antiviral activity, WN-hRuPac cells, Renilla luciferase. The class given is cell-based, West Nile virus. Particulars: for EC50 / inhibition at 25 µM: West Nile virus; for EC50: Secondary Data, WNV, read-out: WNV EC50; for inhibition at 25 µM: primary screening, 25 μM final concentration, 24 hours, percent inhibition of viral replication, read-out: WNV Inh; for WNV TI: therapeutic index CC50/EC50, WNV.

Data set [4] has as its system YFV (YF-hRuPac cells). Briefly: microbe, parasite or virus in culture. The class given is cell-based, yellow fever virus. The following applies: for inhibition at 25 µM / EC50: Yellow fever virus; for inhibition at 25 µM: 24 h, read-out: YFV Inh; for EC50: read-out: YFV EC50.
The subject of data set [5] is DNG (D2-hRuPac cells). Briefly: DNG antiviral activity, D2-hRuPac cells, Renilla luciferase. The format is cell-based, Dengue fever virus. The following applies: Dengue virus, secondary screening.
The subject of data set [6] is EBOV minigenome. The experiment in a line: microbe, parasite or virus in culture. The class given is cell-based, Ebola virus. The following applies: Zaire ebolavirus; for inhibition at 25 µM: 24 h, read-out: EBOV Inh; for EC50: read-out: EBOV EC50.
The subject of data set [7] is SINV (SR19-F-luc cells). The experiment in a line: SINV antiviral activity, SR19-F-luc cells, Firefly luciferase. The following applies: Sindbis virus; for inhibition at 25 µM: primary screening, 25 μM final concentration, 24 hours, percent inhibition of viral replication, read-out: SINV Inh; for EC50: secondary screening, SR19-F-luc cells. The format is cell-based.
Data set [8] in a line: in vitro.

Where only a bound is given, the exact number is not on record here.

The text below walks through data of patent publication US20090221624A1, “4-AMINOQUINOLINE COMPOUNDS FOR TREATING VIRUS-RELATED CONDITIONS” (priority 2005, published 2009).

The EC50 is the concentration needed to bring the measured effect to its halfway point. As for `CCOc1ccc2nc(C)cc(Nc3ccc(N(C)C)cc3)c2c1` [Compound 57], the EC50 came to 4.98 µM in data set [1]; 4.56 µM in data set [2]; 3.6 µM in data set [3]; 2.76 µM in data set [4]; 6.28 µM in data set [5]; 75 µM in data set [6]. Moreover, the EC50 in data set [7] came out at 3.97 µM. Further, the inhibition at 25 µM in data set [1] is 136%; in data set [2], 97.9%; in data set [3] it was 85.7%; in data set [4], 95.8%; in data set [6], 70.8%; in data set [7], 87.7%. For the same compound, in data set [1], the “HCV TI” value was 0.85. In addition, in data set [2], the “RSV TI” value was 6.8. For the same compound, the “WNV TI” value in data set [3] was 8.62. In data set [4], the “YFV TI” value came out at 11.24. Besides, the CC50 in data set [8] (DNG CC50) was determined as 31 µM; in data set [8] (EBOV CC50), 31 µM; in data set [8] (HCV CC50) it was 4.23 µM; in data set [8] (RSV CC50), 31 µM; in data set [8] (SINV CC50) it was 31 µM; in data set [8] (WNV CC50), 31 µM. This compound also displayed a CC50 in data set [8] (YFV CC50) of 31 µM.
Turning to `CCOC(=O)c1cnc2c(C)cccc2c1NCc1ccco1` [Compound 46], the inhibition at 25 µM in data set [1] is 15%; in data set [2] it was 94.7%; in data set [3] it was 103%; in data set [4], 97.7%; in data set [6] it was 90%; in data set [7], -16.9%. The EC50 in data set [2] came out at 1.31 µM; in data set [3] it was 2.96 µM; in data set [4], 3.54 µM; in data set [5], 10.2 µM; in data set [6] it was 7.92 µM; in data set [7], 49.7 µM. In addition, in data set [2], the “RSV TI” value came to 37.48. In addition, in data set [3], the “WNV TI” value is recorded as 16.59. The “YFV TI” value in data set [4] stood at 13.87. Moreover, the CC50 in data set [8] (DNG CC50), in data set [8] (EBOV CC50), in data set [8] (RSV CC50), in data set [8] (SINV CC50), in data set [8] (WNV CC50) and in data set [8] (YFV CC50) was 49.1 µM in each case.
With `COc1cccc2c(Nc3cccc([N+](=O)[O-])c3)cc(C)nc12` [Compound 25], the EC50 in data set [1] was found to be 4.85 µM; in data set [2] it was 4.73 µM; in data set [3], 3.18 µM; in data set [4] it was 3.67 µM; in data set [5], 3.89 µM; in data set [6], 75 µM. In data set [7], the EC50 was found to be 2.13 µM. Further, the inhibition at 25 µM in data set [1] came out at 159%; in data set [2] it was 99.9%; in data set [3], 100%; in data set [4], 100%; in data set [6] it was 99.4%; in data set [7] it was 99.8%. The “HCV TI” value in data set [1] is given as 2.62. In data set [2], the “RSV TI” value was 4.85. Also, the “WNV TI” value in data set [3] stood at 7.22. Also, the “YFV TI” value in data set [4] amounted to 6.25. In addition, the CC50 in data set [8] (DNG CC50) turned out to be 22.9 µM; in data set [8] (EBOV CC50), 22.9 µM; in data set [8] (HCV CC50), 12.7 µM; in data set [8] (RSV CC50), 22.9 µM; in data set [8] (SINV CC50) it was 22.9 µM; in data set [8] (WNV CC50), 22.9 µM. This compound displayed a CC50 in data set [8] (YFV CC50) of 22.9 µM.
For the compound `CCOc1ccc2nc(C)cc(Nc3ccc(OC)c(OC)c3)c2c1` [Compound 56], the EC50 amounted to 4.56 µM in data set [1]; 3.33 µM in data set [2]; 3.5 µM in data set [3]; 3.51 µM in data set [4]; 8.48 µM in data set [5]; 47.5 µM in data set [6]. The same compound gave an EC50 in data set [7] of 2.33 µM. In addition, the inhibition at 25 µM is 128% in data set [1]; 99% in data set [2]; 95.7% in data set [3]; 98.7% in data set [4]; 89.3% in data set [6]; 95.8% in data set [7]. For the same compound, the “HCV TI” value in data set [1] worked out at 1.47. The “RSV TI” value in data set [2] amounted to 8.36. Also, the “WNV TI” value in data set [3] was found to be 7.95. For the same compound, the “YFV TI” value in data set [4] is given as 7.93. Besides, the CC50 came out at 27.8 µM in data set [8] (DNG CC50); 27.8 µM in data set [8] (EBOV CC50); 6.69 µM in data set [8] (HCV CC50); 27.8 µM in data set [8] (RSV CC50); 27.8 µM in data set [8] (SINV CC50); 27.8 µM in data set [8] (WNV CC50). Besides, the CC50 in data set [8] (YFV CC50) turned out to be 27.8 µM.
In the case of `c1coc(CNc2c3c(nc4ccccc24)CCC3)c1` [Compound 10], the inhibition at 25 µM in data set [1] was 34.6%; in data set [2], 99.6%; in data set [3], 81.2%; in data set [4], 86.2%; in data set [6], 38.1%; in data set [7], 15.9%. Further, the EC50 in data set [2] turned out to be 2.51 µM; in data set [3], 9.79 µM; in data set [4] it was 14.4 µM; in data set [5], 24.7 µM; in data set [6], 43.2 µM; in data set [7], 69.9 µM. Besides, in data set [2], the “RSV TI” value amounted to 23.29. Moreover, the “WNV TI” value in data set [3] amounted to 5.97. Moreover, in data set [4], the “YFV TI” value is reported as 4.06. Moreover, the CC50 in data set [8] (DNG CC50) is 58.5 µM; in data set [8] (EBOV CC50) it was 58.5 µM; in data set [8] (HCV CC50) it was 47.6 µM; in data set [8] (RSV CC50), 58.5 µM; in data set [8] (SINV CC50) it was 58.5 µM; in data set [8] (WNV CC50), 58.5 µM. In addition, the CC50 in data set [8] (YFV CC50) is 58.5 µM.
Take `COc1ccc2nc(C)cc(Nc3ccc(I)cc3)c2c1` [Compound 76]: the concentration for a half-maximal effect (EC50) is 11.3 µM in data set [1]; 18.2 µM in data set [2]; 50.4 µM in data set [3]; 8.92 µM in data set [4]; 13.5 µM in data set [5]; 19.8 µM in data set [6]. The EC50 in data set [7] amounted to 2.55 µM. Moreover, the inhibition at 25 µM came to 152% in data set [1]; 75.9% in data set [2]; 85.9% in data set [3]; 93.1% in data set [4]; 93.9% in data set [6]; 93.5% in data set [7]. Also, in data set [1], the “HCV TI” value turned out to be 1.9. In addition, the “RSV TI” value in data set [2] was 1.95. Also, in data set [3], the “WNV TI” value came to 0.7. Also, the “YFV TI” value in data set [4] was determined as 3.98. Moreover, the CC50 in data set [8] (DNG CC50) was 35.5 µM; in data set [8] (EBOV CC50), 35.5 µM; in data set [8] (HCV CC50), 21.5 µM; in data set [8] (RSV CC50), 35.5 µM; in data set [8] (SINV CC50), 35.5 µM; in data set [8] (WNV CC50), 35.5 µM. Besides, in data set [8] (YFV CC50), the CC50 stood at 35.5 µM.
On to `Cc1ccc2nc3c(c(Nc4ccc(N5CCOCC5)cc4)c2c1)CCC3` [Compound 21], for which the EC50 in data set [1] was 8.09 µM; in data set [2], 4.16 µM; in data set [3] it was 9.62 µM; in data set [4], 6.26 µM; in data set [5], 20.2 µM; in data set [6], 47.9 µM. In data set [7], the EC50 came out at 12.1 µM. Moreover, the inhibition at 25 µM in data set [1] was 159%; in data set [2], 99.4%; in data set [3], 62.7%; in data set [4] it was 63.1%; in data set [6], 46.5%; in data set [7], 69.7%. Further, the “HCV TI” value in data set [1] is 0.99. In data set [2], the “RSV TI” value was 10.77. Besides, the “WNV TI” value in data set [3] is listed as 4.66. Besides, the “YFV TI” value in data set [4] is 7.16. Besides, the CC50 was found to be 44.8 µM in data set [8] (DNG CC50); 44.8 µM in data set [8] (EBOV CC50); 8.02 µM in data set [8] (HCV CC50); 44.8 µM in data set [8] (RSV CC50); 44.8 µM in data set [8] (SINV CC50); 44.8 µM in data set [8] (WNV CC50). The same compound came in with a CC50 in data set [8] (YFV CC50) of 44.8 µM.
Turning to `COc1cccc2c(Nc3ccc4c(c3)OCCO4)cc(C)nc12` [Compound 22], the EC50 is 18.1 µM in data set [1]; 3 µM in data set [2]; 22.4 µM in data set [3]; not below 75 µM in data set [4]; 35.6 µM in data set [5]; 5.31 µM in data set [6]. Further, the EC50 in data set [7] came out at 72.3 µM. For the same compound, the inhibition at 25 µM in data set [1] is 55.1%; in data set [2], 75.1%; in data set [3], 48.8%; in data set [4], 29.9%; in data set [6] it was 72%; in data set [7], -22.7%. Also, in data set [1], the “HCV TI” value turned out to be 0.75. For the same compound, the “RSV TI” value in data set [2] worked out at 19.08. Besides, the “WNV TI” value in data set [3] came out at 2.56. Also, the “YFV TI” value in data set [4] turned out to be 0.76. Moreover, the CC50 stood at 57.2 µM in data set [8] (DNG CC50); 57.2 µM in data set [8] (EBOV CC50); 13.7 µM in data set [8] (HCV CC50); 57.2 µM in data set [8] (RSV CC50); 57.2 µM in data set [8] (SINV CC50); 57.2 µM in data set [8] (WNV CC50). The compound further yielded a CC50 in data set [8] (YFV CC50) of 57.2 µM.
